Columns and labels:
[1] = tested on: MDA-MB-468 breast cancer cells; experiment: Western immunoblot of treated cells over 24 hours; type: cell-based; conditions: FIG. 18
Description: Adherent cells were washed once with cold 1×PBS (Corning #01018002) and lysed with RIPA buffer (Sigma #R0278) supplemented by protease and phosphatase inhibitors (Sigma). Protein content was quantified using the DC Protein Assay (BioRad #5000111). Samples were reduced with (loading buffer) and boiled at 95° C. before being resolved by SDS gel electrophoresis on 4-20% Tris/glycine gels (Invitrogen). Proteins were transferred using the IBlot2 (Thermo #IB21001) onto the iBlot™ 2 nitrocellulose Transfer Stacks (Thermo #IB23001). The membranes were then blocked in Odyssey Blocking Buffer (Li-COR #927-40000) for one hour, and then probed overnight with primary antibodies diluted in blocking buffer. The following day, membranes were washed 3×5 mins with 1×TBST and then probed with LiCOR Infrared secondary antibodies for 1 hour at room temperature. Membranes were washed an additional 3×5 mins in 1×TBST and then imaged using the LiCOR Imager. […]

[2] = molecular target: T1, recombinant human Adenosine A1 (FAST-001C) receptor (Homo sapiens, UniProt P30542); experiment: cAMP HTRF assay, Adenosine A1 receptor, antagonist mode; set-up: inhibition: dose or concentration left out as unconfirmed
T1 sequence (P30542 1-326): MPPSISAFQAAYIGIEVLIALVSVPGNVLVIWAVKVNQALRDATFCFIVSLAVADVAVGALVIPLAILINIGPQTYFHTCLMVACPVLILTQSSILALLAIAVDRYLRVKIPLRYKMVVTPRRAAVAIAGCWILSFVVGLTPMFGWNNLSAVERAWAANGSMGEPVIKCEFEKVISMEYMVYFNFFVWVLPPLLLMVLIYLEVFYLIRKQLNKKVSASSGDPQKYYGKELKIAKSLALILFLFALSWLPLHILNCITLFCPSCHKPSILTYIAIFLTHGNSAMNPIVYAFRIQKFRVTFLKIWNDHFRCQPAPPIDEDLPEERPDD

Nc1nc2ccc(Cl)cc2c2nc(-c3ccco3)nn12 [CGS-15943, reference compound]
CYP1A1 expression ([1]; 24 hour time course): induced CYP1A1 expression | FOXA1 levels ([1]; 24 hour time course): maintenance of FOXA1 levels | DNA double stranded breaks (pH2A.X) and PARP cleavage ([1]; within 24 hours): induced DNA double stranded breaks and PARP cleavage | inhibition ([2]; CHO-K1, read-out: % Inhibition Average at maximal concentration): 106% | Hill Coefficient ([2]; antagonist mode dose-response fit): 0.92

From patent publication US12358918B2, “Aryl hydrocarbon receptor (AHR) activator compounds as cancer therapeutics” (THE BROAD INSTITUTE, INC., priority 2018, dated 2025)
